Results taken from patent publication US7879863B2, “Aniline derivatives” (Ajinomoto Co., Inc., priority 2004, dated 2011).
Counter-ions that a name gives are not always drawn. Marks after values point to notes of the source that are not given here.

Columns and labels:
[1] = target: T1, human activated tissue kallikrein (Homo sapiens, UniProt P06870); assay: Measurement of tissue kallikrein inhibitory activity; type: biochemical; conditions: activated tissue kallikrein activity (initial rate) inhibited by 50%; substrate D-valyl-L-leucyl-L-arginyl-p-nitroanilide; 37° C.
T1 construct: 6xHis (C); made in house; host or cells: baculovirus / Sf21 insect cells
T1 sequence (P06870 25-262): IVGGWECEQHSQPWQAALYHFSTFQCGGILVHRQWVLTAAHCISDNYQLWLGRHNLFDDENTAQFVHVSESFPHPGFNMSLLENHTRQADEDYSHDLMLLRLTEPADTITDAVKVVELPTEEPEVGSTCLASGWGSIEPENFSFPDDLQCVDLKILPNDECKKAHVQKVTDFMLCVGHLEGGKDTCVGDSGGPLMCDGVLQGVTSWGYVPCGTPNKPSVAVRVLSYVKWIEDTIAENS
Experimental: Measurement of tissue kallikrein inhibitory activity
Expression and purification of human activated tissue kallikrein was performed according to the method of Angermann (A. Angermann et al., Eur. J. Biochem., 206, 225-233 (1992)). That is, a gene was prepared by adding 6 residues of histidine to the C-terminal side of human pancreas kallikrein gene (D. Fukuchima et al, Biochemistry, 24, 8037-8043 (1985)), and tissue prokallikrein was expressed by a system using a baculovirus-insect cell (Sf21). Purified human tissue kallikrein was obtained from the culture supernatant by purification using a nickel chelate column (Ni-NTA, QIAGEN K. K.), digestion with TPCK trypsin and further nickel chelate column. To a solution (100 μL) of the human activated tissue kallikrein adjusted to 0.0625 μg/mL with an assay buffer (100 mM tris-hydrochloride buffer (pH 8.4) containing 0.2M NaCl, 0.02% Tween 20, and 0.1% PEG 6000) was added an assay buffer (containing 2% DMSO) solution (50 μL) of the test compound adjusted to the objective concentration, and the mixture was incubated at 37° C. for 10 minutes (min=minutes). Then, a 4 mM solution (50 μL) of D-valyl-L-leucyl-L-arginyl-p-nitroanilide hydrochloride (BACHEM AG) adjusted with the assay buffer was added, the absorbance was measured and the reaction rate was determined. As a control, a DMSO solution (50 μL) was added instead of the solution of the test compound. Absorbance was measured at a wavelength of 405 nm at 60 second intervals for 90 min using a Benchmark Plus Microplate Reader (BIO RAD). The negative logarithm value (abbreviated as pIC50) of the test compound concentration when the activated tissue kallikrein activity (initial rate) was inhibited by 50% without addition of the test compound was used as an index of the activated tissue kallikrein inhibitory activity.

[2] = system: DSS-induced enteritis model; assay: Efficacy evaluation in DSS-induced enteritis model; type: in vivo, female CBA mice; conditions: mice, 5% DSS, relative to non-treatment group = 100%, mean ± standard error
From the text: Efficacy evaluation in DSS-induced enteritis model
The dextran sodium sulfate (DSS)-induced enteritis model was subjected to evaluation by a partly-modified methods of Gastroenterology, 98, 694-702 (1990) and Cytokine, 11, 890-896 (1998). A 5 (w/v) % DSS (manufactured by Sigma, MW 5,000) solution was freely taken by female CBA mice (CHARLES RIVER LABORATORIES JAPAN, INC.) for a given period to induce enteritis. A solution of the test compound adjusted to the objective concentration with a 0.5 (w/v) % tragacanth gum (TG) solution was orally administered at 5 mL/kg. Upon autopsy, the length, weight and the like of the large intestine were evaluated and used as an index of the onset of inflammatory enteritis. As a control, a mouse, to which a 0.5 (w/v) % TG solution was orally administered at 5 mL/kg instead of the test compound, was used. The length and weight of the large intestine are expressed as the relative value when the average value of the non-treatment group is 100%. As a Reference Example, the values obtained by oral administration of a positive control drug, salazosulfapyridine, instead of the test compound are shown. […] For testing the significant difference, Dunnett's t-test was used, and statistic significance as shown by P<0.05 and P<0.01 relative to the TG control group is shown in the Table with * and **, respectively.

[3] = system: acetic acid writhing model; assay: Efficacy evaluation in acetic acid writhing model; type: in vivo, male ICR mice; conditions: mice, writhing number 5 to 20 min after 0.9% acetic acid i.p., mean ± standard error
Experimental: Efficacy evaluation in acetic acid writhing model
The acetic acid writhing model was subjected to evaluation according to the method of European Journal of Pharmacology, 352, 47-52 (1998). To be specific, a solution of the test compound adjusted to the objective concentration with a 0.5 (w/v) % tragacanth gum solution was orally administered to male ICR mice (CHARLES RIVER LABORATORIES JAPAN, INC.) at 5 mL/kg, and a 0.9% acetic acid solution adjusted with a physiological saline was intraperitoneally administered 60 min later at 5 mL/kg. The number of writhing for 15 min from 5 min to 20 min after administration of a 0.9% acetic acid solution was counted and taken as the writhing number of the test compound. A mouse, to which a 0.5 (w/v) % tragacanth gum (TG) solution was orally administered at 5 ml/kg instead of the test compound, was used as a control. The suppression rate (%) was calculated by subtracting the relative value of each mouse from the relative value when the average value of the control group is 100%. As a Reference Example, the value obtained by oral administration of a positive control drug, indomethacin, instead of the test compound is shown. […] For testing the significant difference, Dunnett's t-test was used, and statistic significance as shown by P<0.05 and P<0.01 relative to the TG control group is shown in the Table with * and **, respectively.

SMILES | IC50 [1] [nM] | further results
CC(C)[C@H](CNC(=O)CCc1c[nH]c2ccccc12)Nc1ccc(C(F)(F)F)cc1 [Compound A-5] | 50.1 | 
CC(C(=O)NC[C@H](Nc1ccc(C(F)(F)F)cc1)C(C)C)c1ccc(-c2ccccc2)c(F)c1 (stereo partly drawn) [Compound A-6] | 57.5 | 
CC(C)[C@H](CNC(=O)C(=O)c1c[nH]c2ccccc12)Nc1ccc(C(F)(F)F)cc1 [Compound A-12] | 162 | 
CC(C)[C@H](CNC(=O)C1CCN(c2ccncc2)CC1)Nc1ccc(C(F)(F)F)cc1 [Compound A-14] | 182 | 
O=C(Cc1ccccc1)NC[C@H]1CCCN1c1ccc(C(F)(F)F)cc1 [Compound A-39] | 41.7 | 
O=C(Cc1ccccc1)NC[C@@H]1CCCN1c1ccc(C(F)(F)F)cc1 [Compound A-40] | 245 | 
O=C(Cc1c[nH]c2ccccc12)NC[C@H]1CCCN1c1ccc(C(F)(F)F)cc1 [Compound A-41] | 209 | 
CC(C)[C@H](CCNC(=O)c1ccccc1)Nc1ccc(C(F)(F)F)cc1 [Compound A-47, N-((3S))-4-methyl-3-{[4-(trifluoromethyl)phenyl]amino}pentyl)benzamide trifluoroacetate] | 209 | 
CC(C)[C@H](CCNC(=O)C1CCN(c2ccncc2)CC1)Nc1ccc(C(F)(F)F)cc1 [Compound A-48] | 46.8 | 
CC(C)[C@H](CCNC(=O)c1ccc2ncccc2c1)Nc1ccc(C(F)(F)F)cc1 [Compound A-49] | 46.8 | 
CC(C)[C@H](CCNC(=O)Cc1c[nH]c2ccccc12)Nc1ccc(C(F)(F)F)cc1 [Compound A-51] | 129 | 
CC(C)[C@H](CCNC(=O)C1CCN(C(C)C)CC1)Nc1ccc(C(F)(F)F)cc1 [Compound A-52] | 151 | 
CC(C)[C@H](CNC(=O)Cc1ccccc1)Nc1ccc(C(F)(F)F)cc1CO [Compound A-55, N-((2R)-2-{[2-(hydroxymethyl)-4-(trifluoromethyl)phenyl]amino}-3-methylbutyl)-2-phenylacetamide] | 20 | 
CC(C)[C@H](CNC(=O)Cc1ccccc1)Nc1ccc(C(F)(F)F)cc1N [Compound A-56, N-((2R)-2-{[2-amino-4-(trifluoromethyl)phenyl]amino}-3-methylbutyl)-2-phenylacetamide trifluoroacetate] | 50.1 | 
CC(C)[C@H](CNC(=O)[C@@H](N)Cc1c[nH]c2ccccc12)Nc1ccc(C(F)(F)F)cc1N [Compound A-57] | 36.3 | 
CC(C)[C@H](CNC(=O)Cc1c[nH]c2ccccc12)Nc1ccc(C(F)(F)F)cc1N [Compound A-58] | 49 | 
CC(C)[C@H](CNC(=O)Cc1ccccn1)Nc1ccc(C(F)(F)F)cc1N [Compound A-59] | 83.2 | 
CC(C)[C@H](CNC(=O)[C@H](N)Cc1c[nH]c2ccccc12)Nc1ccc(C(F)(F)F)cc1N [Compound A-60] | 135 | 
O=C(N[C@H]1CCN(c2ccc(C(F)(F)F)cc2)C1)C1CCN(c2ccncc2)CC1 [Compound B-2] | 204 | 
CC(C)[C@H](CC(=O)NCCc1ccccc1)Nc1ccc(C(F)(F)F)cc1 [Compound C-42] | 129 | 
CC(C)[C@H](CC(=O)NCCc1ccccn1)Nc1ccc(C(F)(F)F)cc1 [Compound C-43] | 91.2 | 
CCNc1ccc(C(F)(F)F)cc1CO [Compound E-2] | 112 | 
CCCN1CCC(O)c2cc(C(F)(F)F)ccc21 (stereo not drawn) [Compound E-3, 1-propyl-6-(trifluoromethyl)-1,2,3,4-tetrahydroquinolin-4-ol] | 245 | 
CCCCN1CCC(O)c2cc(C(F)(F)F)ccc21 (stereo not drawn) [Compound E-4] | 257 | 
COc1ccc2c(c1)c(CC(=O)O)c(C)n2C(=O)c1ccc(Cl)cc1 [Indomethacin, indomethacin, reference compound] |  | suppression rate (%) ([3]; 10 mg/kg oral): 64.1 ± 10.8** %
O=C(O)c1cc(/N=N/c2ccc(S(=O)(=O)Nc3ccccn3)cc2)ccc1O [salazosulfapyridine, reference compound] |  | large intestine length (%) ([2]; 200 mg/kg oral): 78.1 ± 1.5* %; large intestine weight (%) ([2]; 200 mg/kg oral): 123.0 ± 1.9** %

Second part, led by results:

IC50 [1] [nM] | SMILES | further results
21.9 | CC(C)[C@H](CNC(=O)Cc1ccccc1)Nc1ccc(C(F)(F)F)cc1 [Compound A-1, N-((2R)-3-methyl-2-{[4-(trifluoromethyl)phenyl]amino}butyl)-2-phenylacetamide trifluoroacetate] | 
25.7 | CC(C)[C@H](CNC(=O)CCN)Nc1ccc(C(F)(F)F)cc1 [Compound A-3] | 
29.5 | CC(C)[C@H](CNC(=O)Cc1c[nH]c2ccccc12)Nc1ccc(C(F)(F)F)cc1 [Compound A-4] | 
85.1 | CC(C)[C@H](CNC(=O)Cc1cccnc1)Nc1ccc(C(F)(F)F)cc1 [Compound A-7] | 
91.2 | CC(C)[C@H](CNC(=O)Cc1ccccn1)Nc1ccc(C(F)(F)F)cc1 [Compound A-8] | large intestine length (%) ([2]; 10 mg/kg oral): 80.4 ± 1.8** %; large intestine weight (%) ([2]; 10 mg/kg oral): 130.5 ± 5.28** %; suppression rate (%) ([3]; 3 mg/kg oral): 33.7 ± 10.1* %; suppression rate (%) ([3]; 10 mg/kg oral): 52.7 ± 7.5** %; suppression rate (%) ([3]; 30 mg/kg oral): 63.5 ± 6.6** %
102 | CC(C)[C@H](CNC(=O)[C@H](N)c1ccccc1)Nc1ccc(C(F)(F)F)cc1 [Compound A-9] | 
145 | CC(C)[C@H](CNC(=O)c1cccc(N(C)C)c1)Nc1ccc(C(F)(F)F)cc1 [Compound A-10] | 
158 | CC(C)[C@H](CNC(=O)[C@@H](O)c1ccccc1)Nc1ccc(C(F)(F)F)cc1 [Compound A-11] | 
178 | CC(C)[C@H](CNC(=O)/C=C/c1ccncc1)Nc1ccc(C(F)(F)F)cc1 [Compound A-13] | 
182 | CC(C)[C@H](CNC(=O)[C@@H](N)C(C)C)Nc1ccc(C(F)(F)F)cc1 [Compound A-15] | 
263 | CC(C)[C@H](CNC(=O)C1(c2ccccc2)CC1)Nc1ccc(C(F)(F)F)cc1 [Compound A-16] | 
295 | CC(C)[C@H](CNC(=O)[C@@H](C)N)Nc1ccc(C(F)(F)F)cc1 [Compound A-17] | 
309 | CC(C)[C@H](CNC(=O)[C@@H](N)CO)Nc1ccc(C(F)(F)F)cc1 [Compound A-18] | 
107 | CC(C)[C@H](CCNC(=O)Cc1cccs1)Nc1ccc(C(F)(F)F)cc1 [Compound A-50] | 
64.6 | CC(C)[C@H](CC(=O)NCc1ccccc1)Nc1ccc(C(F)(F)F)cc1 [Compound C-40, (3S)-N-benzyl-4-methyl-3-{[4-(trifluoromethyl)phenyl]amino}pentanamide] | 
302 | CC(C)[C@H](CC(=O)NCc1ccccn1)Nc1ccc(C(F)(F)F)cc1 [Compound C-41] | 
